According to ChEMBL document CHEMBL2046376, “Synthesis and antimicrobial activity of amide derivatives of polyether antibiotic-salinomycin” (2012):
Converted amounts (≈) assume the structure as drawn. The source made the active and inactive calls. No cut-off for these calls is given here.

Tests used:
Assay type in all cases: functional
Staphylococcus aureus [1] = test: Antibacterial activity against hospital-acquired methicillin-sensitive Staphylococcus aureus 444/11 after 18 hrs by twofold serial agar dilution technique; settings: 444/11, 18 h
Staphylococcus aureus [2] = test: Antibacterial activity against hospital-acquired methicillin-sensitive Staphylococcus aureus 445/11 after 18 hrs by twofold serial agar dilution technique; settings: 445/11, 18 h
Staphylococcus aureus [3] = test: Antibacterial activity against hospital-acquired methicillin-resistant Staphylococcus aureus 481/11 after 18 hrs by twofold serial agar dilution technique; settings: 481/11, 18 h
Staphylococcus aureus [4] = test: Antibacterial activity against hospital-acquired methicillin-sensitive Staphylococcus aureus 449/11 after 18 hrs by twofold serial agar dilution technique; settings: 449/11, 18 h
Staphylococcus aureus [5] = test: Antibacterial activity against hospital-acquired methicillin-resistant Staphylococcus aureus 450/11 after 18 hrs by twofold serial agar dilution technique; settings: 450/11, 18 h
Staphylococcus aureus [6] = test: Antibacterial activity against hospital-acquired methicillin-resistant Staphylococcus aureus 399/10 after 18 hrs by twofold serial agar dilution technique; settings: 399/10, 18 h
Staphylococcus aureus [7] = test: Antibacterial activity against hospital-acquired methicillin-sensitive Staphylococcus aureus 441/11 after 18 hrs by twofold serial agar dilution technique; settings: 441/11, 18 h
Staphylococcus aureus [8] = test: Antibacterial activity against hospital-acquired methicillin-sensitive Staphylococcus aureus 448/11 after 18 hrs by twofold serial agar dilution technique; settings: 448/11, 18 h
Staphylococcus aureus [9] = test: Antibacterial activity against hospital-acquired methicillin-resistant Staphylococcus aureus 451/11 after 18 hrs by twofold serial agar dilution technique; settings: 451/11, 18 h
Staphylococcus aureus [10] = test: Antibacterial activity against hospital-acquired methicillin-resistant Staphylococcus aureus 393/10 after 18 hrs by twofold serial agar dilution technique; settings: 393/10, 18 h
Staphylococcus aureus [11] = test: Antibacterial activity against hospital-acquired methicillin-resistant Staphylococcus aureus 452/11 after 18 hrs by twofold serial agar dilution technique; settings: 452/11, 18 h
Staphylococcus aureus [12] = test: Antibacterial activity against hospital-acquired methicillin-sensitive Staphylococcus aureus 446/11 after 18 hrs by twofold serial agar dilution technique; settings: 446/11, 18 h
Staphylococcus aureus [13] = test: Antibacterial activity against hospital-acquired methicillin-sensitive Staphylococcus aureus 440/11 after 18 hrs by twofold serial agar dilution technique; settings: 440/11, 18 h
Staphylococcus aureus [14] = test: Antibacterial activity against hospital-acquired methicillin-resistant Staphylococcus aureus 400/10 after 18 hrs by twofold serial agar dilution technique; settings: 400/10, 18 h
Staphylococcus aureus [15] = test: Antibacterial activity against hospital-acquired methicillin-resistant Staphylococcus aureus 401/10 after 18 hrs by twofold serial agar dilution technique; settings: 401/10, 18 h
Staphylococcus aureus [16] = test: Antibacterial activity against hospital-acquired methicillin-resistant Staphylococcus aureus 394/10 after 18 hrs by twofold serial agar dilution technique; settings: 394/10, 18 h
Staphylococcus aureus [17] = test: Antibacterial activity against hospital-acquired methicillin-sensitive Staphylococcus aureus 447/11 after 18 hrs by twofold serial agar dilution technique; settings: 447/11, 18 h
Staphylococcus aureus [18] = test: Antibacterial activity against hospital-acquired methicillin-resistant Staphylococcus aureus 482/11 after 18 hrs by twofold serial agar dilution technique; settings: 482/11, 18 h
Staphylococcus aureus [19] = test: Antibacterial activity against hospital-acquired methicillin-sensitive Staphylococcus aureus 442/11 after 18 hrs by twofold serial agar dilution technique; settings: 442/11, 18 h
Staphylococcus aureus [20] = test: Antibacterial activity against hospital-acquired methicillin-sensitive Staphylococcus aureus 443/11 after 18 hrs by twofold serial agar dilution technique; settings: 443/11, 18 h
Candida albicans [21] = test: Antifungal activity against Candida albicans ATCC 10231 after 24 hrs by twofold serial agar dilution technique
Pseudomonas aeruginosa [22] = test: Antibacterial activity against Pseudomonas aeruginosa ATCC 27853 after 18 hrs by twofold serial agar dilution technique
[23] = tested on: Staphylococcus epidermidis; test: Antibacterial activity against Staphylococcus epidermidis ATCC 35984 assessed as zone of inhibition at 400 ug/disc after 18 hrs by disc diffusion method; settings: ATCC 35984, 18 h, read-out: DIZ
Escherichia coli [24] = test: Antibacterial activity against Escherichia coli ATCC 25922 after 18 hrs by twofold serial agar dilution technique
[25] = tested on: Staphylococcus epidermidis; test: Antibacterial activity against Staphylococcus epidermidis ATCC 12228 after 18 hrs by twofold serial agar dilution technique; settings: ATCC 12228, 18 h
Pseudomonas aeruginosa [26] = test: Antibacterial activity against Pseudomonas aeruginosa ATCC 15442 after 18 hrs by twofold serial agar dilution technique
Escherichia coli [27] = test: Antibacterial activity against Escherichia coli ATCC 10538 after 18 hrs by twofold serial agar dilution technique
Staphylococcus aureus [28] = test: Antibacterial activity against Staphylococcus aureus ATCC 29213 after 18 hrs by twofold serial agar dilution technique; settings: ATCC 29213, 18 h
Staphylococcus aureus [29] = test: Antibacterial activity against Staphylococcus aureus ATCC 25923 assessed as zone of inhibition at 400 ug/disc after 18 hrs by disc diffusion method; settings: ATCC 25923, 18 h, read-out: DIZ
Candida albicans [30] = test: Antifungal activity against Candida albicans ATCC 90028 after 24 hrs by twofold serial agar dilution technique
Staphylococcus aureus [31] = test: Antibacterial activity against Staphylococcus aureus NCTC 4163 after 18 hrs by twofold serial agar dilution technique; settings: NCTC 4163, 18 h
Staphylococcus aureus [32] = test: Antibacterial activity against Staphylococcus aureus ATCC 29213 assessed as zone of inhibition at 400 ug/disc after 18 hrs by disc diffusion method; settings: ATCC 29213, 18 h, read-out: DIZ
[33] = tested on: Staphylococcus epidermidis; test: Antibacterial activity against Staphylococcus epidermidis ATCC 12228 assessed as zone of inhibition at 400 ug/disc after 18 hrs by disc diffusion method; settings: ATCC 12228, 18 h, read-out: DIZ
Escherichia coli [34] = test: Antibacterial activity against Escherichia coli NCTC 8196 after 18 hrs by twofold serial agar dilution technique
[35] = tested on: Staphylococcus epidermidis; test: Antibacterial activity against Staphylococcus epidermidis ATCC 35984 after 18 hrs by twofold serial agar dilution technique; settings: ATCC 35984, 18 h
Staphylococcus aureus [36] = test: Antibacterial activity against Staphylococcus aureus NCTC 4163 assessed as zone of inhibition at 400 ug/disc after 18 hrs by disc diffusion method; settings: NCTC 4163, 18 h, read-out: DIZ
Staphylococcus aureus [37] = test: Antibacterial activity against Staphylococcus aureus ATCC 25923 after 18 hrs by twofold serial agar dilution technique; settings: ATCC 25923, 18 h
Candida parapsilosis = test: Antifungal activity against Candida parapsilosis ATCC 22019 after 24 hrs by twofold serial agar dilution technique
Staphylococcus aureus [38] = test: Antibacterial activity against Staphylococcus aureus ATCC 6538 assessed as zone of inhibition at 400 ug/disc after 18 hrs by disc diffusion method; settings: ATCC 6538, 18 h, read-out: DIZ
Staphylococcus aureus [39] = test: Antibacterial activity against Staphylococcus aureus ATCC 6538 after 18 hrs by twofold serial agar dilution technique; settings: ATCC 6538, 18 h
Proteus vulgaris = test: Antibacterial activity against Proteus vulgaris NCTC 4635 after 18 hrs by twofold serial agar dilution technique
Pseudomonas aeruginosa [40] = test: Antibacterial activity against Pseudomonas aeruginosa NCTC 6749 after 18 hrs by twofold serial agar dilution technique
[41] = tested on: Bordetella bronchiseptica; test: Antibacterial activity against Bordetella bronchiseptica ATCC 4617 after 18 hrs by twofold serial agar dilution technique

## CC[C@@]1([C@@H]2O[C@@H]([C@H]3O[C@@](O)(CO)[C@H](C)C[C@@H]3C)C[C@@H]2C)CC[C@H]([C@]2(C)CC[C@]3(C[C@H](O)[C@@H](C)[C@@H]([C@@H](C)[C@@H](OC)[C@H](C)C(=O)O)O3)O2)O1 [MONENSIN]
Staphylococcus aureus [1]
  MIC: 4 µg/mL (≈ 5.96 µM)
Staphylococcus aureus [2]
  MIC: 2 µg/mL (≈ 2.98 µM)
Staphylococcus aureus [3]
  MIC: 2 µg/mL (≈ 2.98 µM)
Staphylococcus aureus [4]
  MIC: 2 µg/mL (≈ 2.98 µM)
Staphylococcus aureus [5]
  MIC: 2 µg/mL (≈ 2.98 µM)
Staphylococcus aureus [6]
  MIC: 2 µg/mL (≈ 2.98 µM)
Staphylococcus aureus [7]
  MIC: 4 µg/mL (≈ 5.96 µM)
Staphylococcus aureus [8]
  MIC: 2 µg/mL (≈ 2.98 µM)
Staphylococcus aureus [9]
  MIC: 4 µg/mL (≈ 5.96 µM)
Staphylococcus aureus [10]
  MIC: 4 µg/mL (≈ 5.96 µM)
Staphylococcus aureus [11]
  MIC: 2 µg/mL (≈ 2.98 µM)
Staphylococcus aureus [12]
  MIC: 2 µg/mL (≈ 2.98 µM)
Staphylococcus aureus [13]
  MIC: 2 µg/mL (≈ 2.98 µM)
Staphylococcus aureus [14]
  MIC: 2 µg/mL (≈ 2.98 µM)
Staphylococcus aureus [15]
  MIC: 2 µg/mL (≈ 2.98 µM)
Staphylococcus aureus [16]
  MIC: 4 µg/mL (≈ 5.96 µM)
Staphylococcus aureus [17]
  MIC: 2 µg/mL (≈ 2.98 µM)
Staphylococcus aureus [18]
  MIC: 2 µg/mL (≈ 2.98 µM)
Staphylococcus aureus [19]
  MIC: 2 µg/mL (≈ 2.98 µM)
Staphylococcus aureus [20]
  MIC: 4 µg/mL (≈ 5.96 µM)

## CC[C@@H](C(=O)[C@@H](C)[C@@H](O)[C@H](C)[C@@H]1O[C@@H]([C@@H](CC)C(=O)Nc2ccccc2)CC[C@@H]1C)[C@H]1O[C@]2(C=C[C@@H](O)[C@]3(CC[C@@](C)([C@H]4CC[C@](O)(CC)[C@H](C)O4)O3)O2)[C@H](C)C[C@@H]1C
Staphylococcus aureus [1]
  MIC: 2 µg/mL (≈ 2.42 µM)
Staphylococcus aureus [2]
  MIC: 2 µg/mL (≈ 2.42 µM)
Candida albicans [21]
  Activity: inactive
Pseudomonas aeruginosa [22]
  Activity: inactive
Staphylococcus aureus [3]
  MIC: 4 µg/mL (≈ 4.84 µM)
Staphylococcus aureus [4]
  MIC: 2 µg/mL (≈ 2.42 µM)
[23]
  zone of inhibition at 400 µg/disc: 20 mm
Escherichia coli [24]
  Activity: inactive
[25]
  MIC: 2 µg/mL (≈ 2.42 µM)
Pseudomonas aeruginosa [26]
  Activity: inactive
Escherichia coli [27]
  Activity: inactive
Staphylococcus aureus [5]
  MIC: 4 µg/mL (≈ 4.84 µM)
Staphylococcus aureus [28]
  MIC: 2 µg/mL (≈ 2.42 µM)
Staphylococcus aureus [29]
  zone of inhibition at 400 µg/disc: 18 mm
Candida albicans [30]
  Activity: inactive
Staphylococcus aureus [31]
  MIC: 2 µg/mL (≈ 2.42 µM)
Staphylococcus aureus [6]
  MIC: 4 µg/mL (≈ 4.84 µM)
Staphylococcus aureus [7]
  MIC: 2 µg/mL (≈ 2.42 µM)
Staphylococcus aureus [8]
  MIC: 2 µg/mL (≈ 2.42 µM)
Staphylococcus aureus [9]
  MIC: 4 µg/mL (≈ 4.84 µM)
Staphylococcus aureus [10]
  MIC: 4 µg/mL (≈ 4.84 µM)
Staphylococcus aureus [32]
  zone of inhibition at 400 µg/disc: 21 mm
Staphylococcus aureus [11]
  MIC: 4 µg/mL (≈ 4.84 µM)
Staphylococcus aureus [12]
  MIC: 2 µg/mL (≈ 2.42 µM)
[33]
  zone of inhibition at 400 µg/disc: 22 mm
Staphylococcus aureus [13]
  MIC: 2 µg/mL (≈ 2.42 µM)
Escherichia coli [34]
  Activity: inactive
[35]
  MIC: 4 µg/mL (≈ 4.84 µM)
Staphylococcus aureus [14]
  MIC: 4 µg/mL (≈ 4.84 µM)
Staphylococcus aureus [36]
  zone of inhibition at 400 µg/disc: 19 mm
Staphylococcus aureus [37]
  MIC: 2 µg/mL (≈ 2.42 µM)
Staphylococcus aureus [15]
  MIC: 4 µg/mL (≈ 4.84 µM)
Candida parapsilosis
  Activity: inactive
Staphylococcus aureus [38]
  zone of inhibition at 400 µg/disc: 20 mm
Staphylococcus aureus [16]
  MIC: 4 µg/mL (≈ 4.84 µM)
Staphylococcus aureus [39]
  MIC: 2 µg/mL (≈ 2.42 µM)
Proteus vulgaris
  Activity: inactive
Pseudomonas aeruginosa [40]
  Activity: inactive
Staphylococcus aureus [17]
  MIC: 2 µg/mL (≈ 2.42 µM)
Staphylococcus aureus [18]
  MIC: 4 µg/mL (≈ 4.84 µM)
[41]
  Activity: inactive
Staphylococcus aureus [19]
  MIC: 2 µg/mL (≈ 2.42 µM)
Staphylococcus aureus [20]
  MIC: 2 µg/mL (≈ 2.42 µM)
